Assay results taken from patent US6455507B1, “Benzimidazole derivatives” (SmithKline Beecham Corporation, priority 1997, dated 2002).

Assays:
HCMV strain AD169 = experiment: Human Cytomegalovirus Assay (HCMV DNA hybridization); type: cell-based; conditions: HCMV strain AD169 on MRC5 cell monolayers, 5 days incubation, antiviral effect from HCMV DNA by quantitative hybridization
Method: HCMV strain AD169 was grown on monolayers of human embryonic lung cells (MRC5 cells) in 96 well plates. After infection of the cells at a ratio of approximately 0.01 infectious virus particles per cell, the compounds to be tested were added to selected wells at six different concentrations, each in triplicate. The same concentrations of compound were also applied to wells containing monolayers of uninfected cells in order to assess compound cytotoxicity. The plates were incubated for 5 days, and the minimum cytotoxic dose was estimated from microscopic examination. The IC50 for antiviral effect was estimated from measurements of HCMV DNA in each well by blotting and quantitative specific DNA hybridization, similar to the method of Gadler (Antimicrob. Agents Chemother. 1983, 24, 370-374).

Row | Compound | IC50 (HCMV strain AD169) | melting point | IC50 (HCMV strain AD169; Human betaherpesvirus 5, 120 h)
1 | 2-Bromo-5,6-dichloro/4-fluoro-1-beta-D-ribopyranosyl-1H-benzimidazole [Example 24] | 900 nM |  | 
2 | O[C@@H]1CCCC[C@H]1n1c(Br)nc2cc(Cl)c(Cl)cc21 (racemic) [Example 45, (±)-trans-2-(2-Bromo-5,6-dichloro-1H-benzimidazol-1-yl)cyclohexanol] |  | 201 to 202 °C | 
3 | O[C@@H]1CCCC[C@H]1n1c(NC2CC2)nc2cc(Cl)c(Cl)cc21 (racemic) [Example 46, (±)-trans-2-[5,6-Dichloro-2-(cyclopropylamino)-1H-benzimidazol-1-yl]cyclohexanol] |  | 149 to 151 °C | 
4 | CC(=O)O[C@@H]1[C@H](OC(C)=O)[C@H](OC(C)=O)CO[C@H]1n1c(Br)nc2cc(Cl)c(Cl)cc21 [Example 1, 2-Bromo-5,6-dichloro-1-(2,3,4-tri-O-acetyl-beta-D-ribopyranosyl)-1H-benzimidazole] |  | 100 to 110 °C | 1000 nM
5 | O[C@@H]1[C@H](O)[C@H](O)CO[C@H]1n1c(Br)nc2cc(Cl)c(Cl)cc21 [Example 2, 2-Bromo-5,6-dichloro-1-beta-D-ribopyranosyl-1H-benzimidazole] |  | 175 °C (dec.) | 700 nM
6 | CC(C)Nc1nc2cc(Cl)c(Cl)cc2n1[C@@H]1OC[C@@H](O)[C@@H](O)[C@H]1O [Example 3, 5,6-Dichloro-N-1(1-methylethyl)-1-beta-D-ribopyranosyl-1H-benzimidazole-2-amine] | 22000 nM |  | 
7 | CC(=O)O[C@@H]1[C@H](OC(C)=O)[C@@H](n2c(Br)nc3cc(Cl)c(Cl)cc32)OC[C@@H]1OC(C)=O [Example 4, 2-Bromo-5,6-dichloro-1-(2,3,4-tri-O-acetyl-beta-L-ribopyranosyl)-1H-benzimidazole] |  | 110 °C | 
8 | Cc1cc2nc(Br)n([C@@H]3OC[C@@H](O)[C@@H](O)[C@H]3O)c2cc1Cl [Example 13, 2-Bromo-6-chloro-5-methyl-1-beta-D-ribopyranosyl-1H-benzimidazole] |  | 170 to 175 °C (dec.) | 6000 nM
9 | OC[C@@H]1OC[C@H](n2c(NC3CC3)nc3cc(Cl)c(Cl)cc32)C[C@H]1O [Example 39, (3R,5R,6S)-5,6-Dichloro-2-(cyclopropylamino)-1-(tetrahydro-5-hydroxy-6-(hydroxymethyl)2H-pyran-3-yl)-1H-benzimidazole] |  | 98 to 99 °C | 
10 | OC[C@H]1OC[C@@H](n2c(Br)nc3cc(Cl)c(Cl)cc32)[C@H](O)[C@@H]1O [Example 40, (3R,4S,5S,6R)-2-Bromo-5,6-dichloro-1-(tetrahydro-4,5-dihydroxy-6-(Hydroxymethyl)-2H-pyran-3-yl)-1H-benzimidazole] |  | 207 to 209 °C | 
11 | OC[C@H]1OC[C@@H](n2c(NC3CC3)nc3cc(Cl)c(Cl)cc32)[C@H](O)[C@@H]1O [Example 41, (3R,4S ,5S ,6R)-5,6-Dichloro-2-(cyclopropylamino)-1-(tetrahydro-4,5-dihydroxy-6-(hydroxymethyl)-2H-pyran-3-yl)-1H-benzimidazole] |  | 244 °C (dec.) | 
12 | OC[C@@H]1OC[C@H](n2c(Br)nc3cc(Cl)c(Cl)cc32)[C@@H](O)[C@H]1O [Example 42, (3S,4R,5R,6S)-2-Bromo-5,6-dichloro-1-(tetrahydro-4,5-dihydroxy-6-(hydroxymethyl)-2H-pyran-3-yl)-1H-benzimidazole] |  | 207 to 208 °C | 
13 | OC[C@@H]1OC[C@H](n2c(NC3CC3)nc3cc(Cl)c(Cl)cc32)[C@@H](O)[C@H]1O [Example 43, (3S,4R,5R,6S)-5,6-Dichloro-2-(cyclopropylamino)-1-(tetrahydro-4,5-dihydroxy-6-(hydroxymethyl)-2H-pyran-3-yl)-1H-benzimidazole] |  | 164 °C | 
14 | O[C@H]1[C@H](O)[C@@H](n2c(Br)nc3cc(Cl)c(Cl)cc32)OC[C@@H]1O [Example 57, 2-Bromo-5,6-dichloro-1-beta-L-xylopyranosyl-1H-benzimidazole] |  | 164 to 165 °C | 
